Laboratory results reported in patent EP3623369A1, “NOVEL MORPHOLINYL AMINE COMPOUNDS FOR THE TREATMENT OF AUTOIMMUNE DISEASE” (F. Hoffmann-La Roche AG, priority 2018, dated 2020).
pIC50: −log10 of the molar value.

Target: T1, hTLR9 (Homo sapiens, UniProt Q9NR96)
T1 sequence (Q9NR96 26-1032): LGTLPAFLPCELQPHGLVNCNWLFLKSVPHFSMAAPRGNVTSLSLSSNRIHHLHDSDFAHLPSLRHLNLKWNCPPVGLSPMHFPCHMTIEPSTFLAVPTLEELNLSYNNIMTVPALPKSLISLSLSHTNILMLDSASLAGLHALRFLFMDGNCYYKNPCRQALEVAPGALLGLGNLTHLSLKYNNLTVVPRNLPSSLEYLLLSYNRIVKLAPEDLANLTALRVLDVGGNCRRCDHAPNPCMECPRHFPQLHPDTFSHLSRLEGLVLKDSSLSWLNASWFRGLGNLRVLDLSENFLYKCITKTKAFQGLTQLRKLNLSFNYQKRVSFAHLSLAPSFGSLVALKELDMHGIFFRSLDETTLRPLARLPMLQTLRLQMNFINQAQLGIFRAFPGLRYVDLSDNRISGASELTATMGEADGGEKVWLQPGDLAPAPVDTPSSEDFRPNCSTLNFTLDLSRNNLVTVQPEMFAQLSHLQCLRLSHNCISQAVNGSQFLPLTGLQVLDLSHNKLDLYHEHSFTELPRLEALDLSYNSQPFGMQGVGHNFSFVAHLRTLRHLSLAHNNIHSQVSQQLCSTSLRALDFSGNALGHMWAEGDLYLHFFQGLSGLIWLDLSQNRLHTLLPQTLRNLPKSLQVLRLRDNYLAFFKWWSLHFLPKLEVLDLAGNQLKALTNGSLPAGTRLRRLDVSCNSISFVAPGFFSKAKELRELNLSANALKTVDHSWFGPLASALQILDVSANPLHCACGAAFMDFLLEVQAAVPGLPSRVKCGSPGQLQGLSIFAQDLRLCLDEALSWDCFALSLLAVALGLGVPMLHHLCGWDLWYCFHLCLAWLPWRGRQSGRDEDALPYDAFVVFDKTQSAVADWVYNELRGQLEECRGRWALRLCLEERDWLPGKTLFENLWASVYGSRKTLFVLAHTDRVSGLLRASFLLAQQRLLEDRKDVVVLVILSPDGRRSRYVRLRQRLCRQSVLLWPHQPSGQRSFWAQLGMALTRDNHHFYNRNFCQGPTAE
Assay: HEK293-Blue-hTLR-9 cells assay (SEAP reporter, ODN2006 stimulation)
Assay type: cell-based
Settings: HEK293-Blue-hTLR9 cells, ODN2006, 20 hrs; 0.032 is the lowest tested concentration; read-out: HEK/hTLR9 IC50
Protocol: The following tests were carried out in order to determine the activity of the compounds of formula (I) or (Ia) in HEK293-Blue-hTLR-7/8/9 cells assay.
HEK293-Blue-hTLR-9 cells assay:
A stable HEK293-Blue-hTLR-9 cell line was purchased from InvivoGen (Cat.#: hkb-htlr9, San Diego, California, USA). These cells were originally designed for studying the stimulation of human TLR9 by monitoring the activation of NF-κB. A SEAP (secreted embryonic alkaline phosphatase) reporter gene was placed under the control of the IFN-β minimal promoter fused to five NF-κB and AP-1-binding sites. The SEAP was induced by activating NF-κB and AP-1 via stimulating HEK-Blue hTLR9 cells with TLR9 ligands. Therefore the reporter expression was declined by TLR9 antagonist under the stimulation of a ligand, such as ODN2006 (Cat.#: tlrl-2006-1, Invivogen, San Diego, California, USA), for incubation of 20 hrs. The cell culture supernatant SEAP reporter activity was determined using QUANTI-Blue™ kit (Cat.#: rep-qb1, Invivogen, San Diego, California, USA) at a wavelength of 640 nm, a detection medium that turns purple or blue in the presence of alkaline phosphatase.
HEK293-Blue-hTLR9 cells were incubated at a density of 250,000∼450,000 cells/mL in a volume of 170 µL in a 96-well plate in Dulbecco's Modified Eagle's medium (DMEM) containing 4.5 g/L glucose, 50 U/mL penicillin, […], […], 2 mM L-glutamine, 10% (v/v) heat-inactivated fetal bovine serum with addition of 20 µL test compound in a serial dilution in the presence of final DMSO at 1% and 10 µL of 20uM ODN2006 in above DMEM, perform incubation under 37 °C in a CO2 incubator for 20 hrs. Then 20 µL of the supernatant from each well was incubated with 180 µL Quanti-blue substrate solution at 37 °C for 2 hrs and the absorbance was read at 620∼655 nm using a spectrophotometer. The signalling pathway that TLR9 activation leads to downstream NF-κB activation has been widely accepted, and therefore similar reporter assay was modified for evaluating TLR9 antagonist.

pIC50	Molecule
> 7.49	C[C@@H]1CN(c2ccc(C#N)c3ncccc23)C[C@H](CN2CCc3cc(N4CCNCC4)ncc3C2)O1 [Example 70, 5-[(2R,6S)-2-methyl-6-[(6-piperazin-1-yl-3,4-dihydro-1H-2,7-naphthyridin-2-yl)methyl]morpholin-4-yl]quinoline-8-carbonitrile]
6.79	CC1CNCCN1c1ccc2c(c1)CN(C[C@H]1CN(c3ccc(C#N)c4ncccc34)C[C@@H](C)O1)C2 (stereo partly drawn) [Example 78, 5-[(2R,6S)-2-methyl-6-[[5-(2-methylpiperazin-1-yl)isoindolin-2-yl]methyl]morpholin-4-yl] quinoline-8-carbonitrile]
7.08	C[C@@H]1CN(c2ccc(C#N)c3ncccc23)C[C@H](CN2Cc3ccc(N4CC5(CNC5)C4)cc3C2)O1 [Example 47, 5-[(2S,6R)-2-[[5-(2,6-diazaspiro[3.3]heptan-2-yl)isoindolin-2-yl]methyl]-6-methyl-morpholin-4-yl]quinoline-8-carbonitrile]
7.09	C[C@@H]1CN(c2ccc(C#N)n3nccc23)C[C@H](CNCc2ccc(N3CCNCC3)cc2)O1 [Example 16, 4-[(2R,6S)-2-methyl-6-[[(4-piperazin-1-ylphenyl)methylamino]methyl]morpholin-4-yl]pyrazolo[1,5-a]pyridine-7-carbonitrile]
6.98	CC1c2ccc(N3CCNCC3)cc2CN1C[C@H]1CN(c2ccc(C#N)c3ncccc23)C[C@@H](C)O1 (stereo partly drawn) [Example 48, 5-[(2R,6S)-2-methyl-6-[(1-methyl-5-piperazin-1-yl-isoindolin-2-yl)methyl]morpholin-4-yl]quinoline-8-carbonitrile]
7.27	C[C@@H]1CN(c2ccc(C#N)c3nccnc23)C[C@H](CN2CCc3cc(N4CCNCC4)ccc3C2)O1 [Example 13, 8-[(2R,6S)-2-methyl-6-[(6-piperazin-1-yl-3,4-dihydro-1H-isoquinolin-2-yl)methyl]morpholin-4-yl]quinoxaline-5-carbonitrile]
7.20	C[C@@H]1CN(c2ccc(C#N)c3ncccc23)C[C@H](CN2Cc3ccc(N4CCNC[C@H]4CO)cc3C2)O1 [Example 83, 5-[(2S,6R)-2-[[5-[(2S)-2-(hydroxymethyl)piperazin-1-yl]isoindolin-2-yl]methyl]-6-methyl-morpholin-4-yl]quinoline-8-carbonitrile]
7.25	C[C@@H]1CN(c2ccc(C#N)c3ncccc23)C[C@H](CN2Cc3ccc(N4CCNCC4)nc3C2)O1 [Example 80, 5-[(2R,6S)-2-methyl-6-[(2-piperazin-1-yl-5,7-dihydropyrrolo[3,4-b]pyridin-6-yl)methyl]morpholin-4-yl]quinoline-8-carbonitrile]
6.67	C[C@@H]1CN(c2ccc(C#N)c3nccnc23)C[C@H](CN2Cc3ccc(N4CCN(C5CC5)CC4)cc3C2)O1 [Example 35, 8-[(2S,6R)-2-[[5-(4-cyclopropylpiperazin-1-yl)isoindolin-2-yl]methyl]-6-methyl-morpholin-4-yl]quinoxaline-5-carbonitrile]
7.22	C[C@@H]1CN(c2ccc(C#N)n3nccc23)C[C@H](CN2CCc3ccc(N4CCNCC4)cc3C2)O1 [Example 11, 4-[(2R,6S)-2-methyl-6-[(7-piperazin-1-yl-3,4-dihydro-1H-isoquinolin-2-yl)methyl]morpholin-4-yl]pyrazolo[1,5-a]pyridine-7-carbonitrile]
7.14	C[C@@H]1CN(c2ccc3c(c2)CN(C[C@H]2CN(c4ccc(C#N)c5ncccc45)C[C@@H](C)O2)C3)C[C@H](C)N1 [Example 71, 5-[(2R,6S)-2-methyl-6-[[5-[(3R,5S)-3,5-dimethylpiperazin-1-yl]isoindolin-2-yl]methyl]morpholin-4-yl]quinoline-8-carbonitrile]
6.93	C[C@@H]1CN(c2ccc(C#N)n3ncc(F)c23)C[C@H](CN2CCc3cc(N4CCNCC4)ccc3C2)O1 [Example 14, 3-fluoro-4-[(2R,6S)-2-methyl-6-[(6-piperazin-1-yl-3,4-dihydro-1H-isoquinolin-2-yl)methyl]morpholin-4-yl]pyrazolo[1,5-a]pyridine-7-carbonitrile]
7.09	C[C@@H]1CN(c2ccc(C#N)c3ncsc23)C[C@H](CN2CCc3cc(N4CCNCC4)ccc3C2)O1 [Example 24, 7-[(2R,6S)-2-methyl-6-[(6-piperazin-1-yl-3,4-dihydro-1H-isoquinolin-2-yl)methyl]morpholin-4-yl]-1,3-benzothiazole-4-carbonitrile]
7.26	C[C@@H]1CN(c2ccc(C#N)n3nccc23)C[C@H](CN2Cc3ccc(N4CCNCC4)cc3C2)O1 [Example 4, 4-[(2R,6S)-2-methyl-6-[(5-piperazin-1-ylisoindolin-2-yl)methyl]morpholin-4-yl]pyrazolo[1,5-a]pyridine-7-carbonitrile]
6.64	C[C@@H]1CN(c2ccc(C#N)c3nccnc23)C[C@H](CN2Cc3ccc(N4CCNC5(CC5)C4)cc3C2)O1 [Example 38, 8-[(2S,6R)-2-[[5-(4,7-diazaspiro[2.5]octan-7-yl)isoindolin-2-yl]methyl]-6-methyl-morpholin-4-yl]quinoxaline-5-carbonitrile]
> 7.49	C[C@@H]1CN(c2ccc(C#N)c3ncccc23)C[C@H](CNCc2ccc(N3CCNCC3)cc2)O1 [Example 86, 5-[(2R,6S)-2-methyl-6-[[(4-piperazin-1-ylphenyl)methylamino]methyl]morpholin-4-yl] quinoline-8-carbonitrile]
7.28	C[C@@H]1CN(c2ccc(C#N)c3nccnc23)C[C@H](CN2Cc3ccc(N4CCNCC4)cc3C2)O1 [Example 12, 8-[(2R,6S)-2-methyl-6-[(5-piperazin-1-ylisoindolin-2-yl)methyl]morpholin-4-yl]quinoxaline-5-carbonitrile]
> 7.49	C[C@@H]1CN(c2ccc(C#N)c3ncccc23)C[C@H](CN2CCc3nc(N4CCNCC4)ccc3C2)O1 [Example 79, 5-[(2R,6S)-2-methyl-6-[(2-piperazin-1-yl-7,8-dihydro-5H-1,6-naphthyridin-6-yl)methyl]morpholin-4-yl]quinoline-8-carbonitrile]
6.91	C[C@@H]1CN(c2ccc(Cl)c3ncccc23)C[C@H](CN2CCc3cc(N4CCNCC4)ccc3C2)O1 [Example 32, (2R,6S)-4-(8-chloro-5-quinolyl)-2-methyl-6-[(6-piperazin-1-yl-3,4-dihydro-1H-isoquinolin-2-yl)methyl]morpholine]

Molecule	pIC50
C[C@@H]1CN(c2ccc(C#N)c3ncccc23)C[C@H](CN2Cc3ccc(N4CC5COCC(C4)N5)cc3C2)O1 [Example 72, 5-[(2R,6S)-2-methyl-6-[[5-(3-oxa-7,9-diazabicyclo[3.3.1]nonan-7-yl)isoindolin-2-yl]methyl]morpholin-4-yl]quinoline-8-carbonitrile]	7.18
C[C@@H]1CN(c2ccc(C#N)c3ncccc23)C[C@H](CN2Cc3ccc(N4C5CNCC4COC5)cc3C2)O1 [Example 46, 5-[(2R,6S)-2-methyl-6-[[5-(3-oxa-7,9-diazabicyclo[3.3.1]nonan-9-yl)isoindolin-2-yl]methyl]morpholin-4-yl]quinoline-8-carbonitrile]	7.12
3-fluoro-4-[(2R,6S)-2-methyl-6-[(5-piperazin-1-ylisoindolin-2-yl)methyl]morpholin-4-yl]pyrazolo[1,5-a]pyridine-7-carbonitrile [Example 7]	7.04
